Assay results from patent US20140377340A1, “HLA-DR BINDING PEPTIDES AND THEIR USES” (priority 2007, published 2014).

What was measured:
[1] = molecular target: T1, purified HLA DRB1*0701 (Homo sapiens, UniProt P01903+P01911, A100R/A102G/A103Q/D57E/D86V/E43K/F76Y/K127E/L162R/M171V/P40G/Q125H/Q99D/R33Q/R42Y/R54Q/S133A/S66F/T210M/V115G/Y107V/Y59L/Y89S); test: HLA-DR radioligand binding inhibition assay, DRB1*0701; details: IC50 nM purified HLA DRB1 *0701, purified HLA DRB1*0701
T1 construct: purified from EBV transformed homozygous cell lines or single MHC allele transfected 721.221, C1R, or fibroblast lines; made in house
Method: (§1) Instead, wells of an opaque white 96-well Optiplate (Packard) are coated with 3 μg (100 μl@ 30 μg/ml) of HLA-specific antibody (Ab) that “capture” complexes of radiolabeled MHC and unlabeled peptide transferred from the molecular binding assay plate in 100 μl of 0.05% NP40/PBS. After a 3-hour incubation period, the supernatant is decanted and scintillation fluid (Microscint 20) added. Captured complexes are then measured on a microplate scintillation and luminescence counter (TopCount NXTTM; Packard).
(§2) HLA-DR purification. Fifteen distinct HLA-DR molecules were used in quantitative assays to measure the binding of peptides to solubilized HLA-DR molecules. […] Briefly, columns of inactivated Sepharose CL4B and Protein A Sepharose were used as pre-columns. HLA-DR molecules were captured by passage of lysates over LB3.1 monoclonal antibody (anti-HLA-DRA) columns. Antibody columns were washed with 10 mM Tris-HCL, pH8.0 with 1% (v/v) NP-40, followed by PBS containing 0.4% (w/v) n-octylglucoside.
(§3) Briefly, 1-10 nM of radiolabeled peptide was co-incubated for 2 days at either room temperature or 37° C. with 1 μM to 1 nM purified HLA-DR molecules in the presence of a cocktail of protease inhibitors. Assays were performed at various pH conditions, ranging from pH 4 to pH 7. […] After incubation, the percentage of HLA-DR-bound radioactivity is determined by capturing HLA-DR/peptide complexes on Optiplates (Packard Instruments, Meriden, Conn.) coated with the LB3.1 antibody and determining bound counts per minute using the TopCount microscintillation counter (Packard Instruments).

[2] = molecular target: T2, purified HLA DRB1*0405 (Homo sapiens, UniProt P01903+P01911, A100R/A169T/D86S/F76Y/I96L/K127E/L162R/M171V/N62H/P40V/Q125Y/R42H/S133A/S149N/S66Y/V115G/V209L/W38E); test: HLA-DR radioligand binding inhibition assay, DRB1*0405; details: IC50 nM purified HLA DRB1 *0405, purified HLA DRB1*0405
T2 construct: purified from EBV transformed homozygous cell lines or single MHC allele transfected 721.221, C1R, or fibroblast lines; made in house
Method: as §1, §2, §3

[3] = molecular target: T3, purified HLA DRB1*1101 (Homo sapiens, UniProt P01903+P01911, A100R/A169T/A87E/I96F/K41T/L162R/M171V/P40S/Q125H/Q178H/Q39Y/Q99D/R42S/S66Y/T262R/V115G/W38E); test: HLA-DR radioligand binding inhibition assay, DRB1*1101; details: IC50 nM purified HLA DRB1 *1101, purified HLA DRB1*1101
T3 construct: purified from EBV transformed homozygous cell lines or single MHC allele transfected 721.221, C1R, or fibroblast lines; made in house
T3 sequence (P01903 26-254, other chains not shown): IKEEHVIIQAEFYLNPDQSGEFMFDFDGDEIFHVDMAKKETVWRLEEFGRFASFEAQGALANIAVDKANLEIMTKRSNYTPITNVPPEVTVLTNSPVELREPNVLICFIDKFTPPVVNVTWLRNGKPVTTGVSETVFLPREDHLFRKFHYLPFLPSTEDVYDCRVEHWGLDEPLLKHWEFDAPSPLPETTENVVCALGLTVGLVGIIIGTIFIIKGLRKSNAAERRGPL
Method: as §1, §2, §3

[4] = molecular target: T4, purified HLA DRB1*1302 (Homo sapiens, UniProt P01903+P01911, A100E/A169T/K41T/L162R/M171V/P40S/Q125H/Q178H/Q39Y/Q99D/R42S/S66N/T262R/V115G/W38E/Y61H); test: HLA-DR radioligand binding inhibition assay, DRB1*1302
T4 construct: purified from EBV transformed homozygous cell lines or single MHC allele transfected 721.221, C1R, or fibroblast lines; made in house
Method: as §1, §2, §3

[5] = molecular target: T5, purified HLA DRB1*0401 (Homo sapiens, UniProt P01903+P01911, A100K/A169T/F76Y/I96L/K127E/L162R/M171V/N62H/P40V/Q125Y/R42H/S133A/S149N/S66Y/V115G/V209L/W38E); test: HLA-DR radioligand binding inhibition assay, DRB1*0401; details: IC50 nM purified HLA DRB1 *0401, purified HLA DRB1*0401
T5 construct: purified from EBV transformed homozygous cell lines or single MHC allele transfected 721.221, C1R, or fibroblast lines; made in house
Method: as §1, §2, §3

[6] = molecular target: T6, purified HLA DRB5*0101 (Homo sapiens, UniProt P01903+Q30154); test: HLA-DR radioligand binding inhibition assay, DRB5*0101; details: IC50 nM purified HLA DRB5 *0101, purified HLA DRB5*0101
T6 construct: purified from EBV transformed homozygous cell lines or single MHC allele transfected 721.221, C1R, or fibroblast lines; made in house
Method: as §1, §2, §3

[7] = molecular target: T7, purified HLA DRB1*0101 (Homo sapiens, UniProt P01903+P01911, A100R/D57E/F55L/F60I/F76Y/I96L/L162R/M171V/P40L/Q125E/R42F/V115G/Y59C); test: HLA-DR radioligand binding inhibition assay, DRB1*0101; details: IC50 nM purified HLA DRB1 *0101, purified HLA DRB1*0101
T7 construct: purified from EBV transformed homozygous cell lines or single MHC allele transfected 721.221, C1R, or fibroblast lines; made in house
Method: as §1, §2, §3

Structure (SMILES) | IC50 [1] [nM] | IC50 [2] [nM] | IC50 [3] [nM] | IC50 [4] [nM] | IC50 [5] [nM] | IC50 [6] [nM] | IC50 [7] [nM]
CC(C)C[C@H](NC(=O)CNC(=O)[C@H](CC(C)C)NC(=O)[C@H](Cc1c[nH]cn1)NC(=O)[C@H](Cc1c[nH]cn1)NC(=O)[C@H](CCCCN)NC(=O)CN)C(=O)N[C@@H](CCC(=O)O)C(=O)N[C@@H](CCC(=O)O)C(=O)N1CCC[C@H]1C(=O)N[C@@H](CCCCN)C(=O)N[C@@H](CCCCN)C(=O)N[C@@H](CC(C)C)C(=O)N[C@@H](CCCNC(=N)N)C(=O)N1CCC[C@H]1C(=O)O [Peptide 9019.0187] | 3100 | 6480 | 16800 | – | – | – | –
CC[C@H](C)[C@H](NC(=O)[C@H](CC(C)C)NC(=O)[C@H](C)NC(=O)[C@H](CC(C)C)NC(=O)CN)C(=O)N[C@@H](Cc1c[nH]cn1)C(=O)N[C@@H](Cc1c[nH]cn1)C(=O)N[C@@H](CC(N)=O)C(=O)N[C@H](C(=O)N[C@@H](Cc1c[nH]cn1)C(=O)N[C@@H](CC(C)C)C(=O)N[C@@H](CS)C(=O)N[C@@H](Cc1ccccc1)C(=O)N[C@H](C(=O)N[C@@H](Cc1c[nH]cn1)C(=O)O)C(C)C)[C@@H](C)O [Peptide 9019.0058] | – | – | 2800 | 18 | 414 | – | –
CC[C@H](C)[C@H](NC(=O)[C@H](CCCCN)NC(=O)[C@H](CCC(N)=O)NC(=O)[C@@H](N)CCC(N)=O)C(=O)N[C@@H](CCCNC(=N)N)C(=O)N[C@@H](CCCCN)C(=O)N[C@@H](Cc1ccc(O)cc1)C(=O)N[C@H](C(=O)N[C@@H](CCSC)C(=O)N[C@@H](CCCNC(=N)N)C(=O)N[C@@H](CCCNC(=N)N)C(=O)N[C@@H](CC(C)C)C(=O)N[C@@H](CC(C)C)C(=O)N[C@@H](CCC(N)=O)C(=O)N[C@@H](CCC(=O)O)C(=O)O)[C@@H](C)O [Peptide 9019.0070] | – | – | – | – | – | 340 | –
CC[C@H](C)[C@H](NC(=O)[C@@H](NC(=O)[C@@H]1CCCN1C(=O)[C@H](C)N)[C@@H](C)O)C(=O)N[C@@H](CO)C(=O)N1CCC[C@H]1C(=O)N[C@@H](CC(C)C)C(=O)N[C@@H](CC(N)=O)C(=O)N[C@H](C(=O)N[C@@H](CO)C(=O)N[C@@H](Cc1ccc(O)cc1)C(=O)N[C@@H](CCCNC(=N)N)C(=O)N[C@@H](CO)C(=O)NCC(=O)N[C@@H](CCC(=O)O)C(=O)O)[C@@H](C)O [Peptide 9019.0121] | – | 5990 | – | 125 | 295 | – | 2430
CSCC[C@H](NC(=O)[C@H](CC(C)C)NC(=O)[C@H](CCC(N)=O)NC(=O)[C@@H](NC(=O)[C@@H](NC(=O)[C@H](CC(C)C)NC(=O)[C@H](CCC(N)=O)NC(=O)[C@@H](NC(=O)[C@@H](N)[C@@H](C)O)C(C)C)C(C)C)[C@@H](C)O)C(=O)N1CCC[C@H]1C(=O)N[C@@H](Cc1ccc(O)cc1)C(=O)NCC(=O)N[C@@H](CS)C(=O)N[C@@H](CC(C)C)C(=O)N[C@@H](CC(C)C)C(=O)O [Peptide 9019.0080] | – | – | – | – | – | 3000 | –
CC(C)C[C@H](NC(=O)[C@H](C)NC(=O)[C@H](CC(C)C)NC(=O)[C@@H](N)CC(C)C)C(=O)N[C@@H](CC(C)C)C(=O)N1CCC[C@H]1C(=O)N1CCC[C@H]1C(=O)NCC(=O)N[C@@H](C)C(=O)N[C@@H](C)C(=O)N[C@@H](CO)C(=O)N[C@H](C(=O)N[C@@H](CCC(N)=O)C(=O)N[C@H](C(=O)N[C@@H](CS)C(=O)O)C(C)C)[C@@H](C)O [Peptide 1622.02] | – | > 20000 | – | – | – | 17 | 17
